According to US6569906B1, “Composition containing a precursor capable of being hydrolysed by glucocerebrosidase” (Pierre Fabre Dermo-Cosmetique, priority 1998, dated 2003):

Assays:
glucocerebrosidase = biological target: T1, glucocerebrosidase (Homo sapiens, UniProt P04062); assay: Kinetics of hydrolysis of glucosylated precursors by glucocerebrosidase of a stratum corneum extract; type: biochemical; conditions: for Quantity of molecule released: phthalate buffer pH 5.6, 24 hours incubation, freeze-dried cutaneous extract, three strippings of 15 cm^2; for Release of the active agent from its glucosylated precursor: from the glucopyranoside precursor
T1 construct: a freeze-dried cutaneous extract obtained after taking a sample by three successive strippings of 15 cm^2; from tissue; host or cells: stratum corneum (powdered, freeze-dried cutaneous extract from three successive strippings)
T1 sequence (P04062 40-536): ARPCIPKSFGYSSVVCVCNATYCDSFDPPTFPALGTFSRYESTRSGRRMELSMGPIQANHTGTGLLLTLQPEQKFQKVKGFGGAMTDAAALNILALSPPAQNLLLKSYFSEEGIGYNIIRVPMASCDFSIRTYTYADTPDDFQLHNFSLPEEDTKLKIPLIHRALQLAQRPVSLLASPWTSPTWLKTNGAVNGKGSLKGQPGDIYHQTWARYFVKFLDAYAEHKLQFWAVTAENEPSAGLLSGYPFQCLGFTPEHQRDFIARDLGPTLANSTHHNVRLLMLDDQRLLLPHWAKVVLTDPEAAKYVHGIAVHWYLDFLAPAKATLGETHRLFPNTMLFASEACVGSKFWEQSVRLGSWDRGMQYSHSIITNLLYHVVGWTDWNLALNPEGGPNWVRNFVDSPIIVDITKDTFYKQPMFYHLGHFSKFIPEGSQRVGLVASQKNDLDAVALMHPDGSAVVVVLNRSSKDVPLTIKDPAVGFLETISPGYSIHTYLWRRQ
Protocol: The precursor and the stratum corneum sample in powdered form are incorporated into a liquid medium buffered with a phthalate buffer at pH 5.6. The mixture is incubated for 24 hours and the quantity of active agent released is assayed by densitometry on a thin-layer chromatography plate.
The following table gives, for various glucosylated precursors, the quantity of molecule released following their hydrolysis by glucocerebrosidase over 24 hours by a freeze-dried cutaneous extract obtained after taking a sample by three successive strippings of 15 cm^2.

[1] = Nonirradiated; cream containing 0.4%
Source text: The photostability of delta-tocopheryl-glucopyranoside and that of delta-tocopherol are compared.
Samples of a cream containing 0.4% of delta-tocopheryl-glucopyranoside or of delta-tocopherol are irradiated with a 28 J/cm^2 incident light of 290 to 800 nm (5 DEM).

[2] = Antioxidant activity against the peroxidation of squalene, MDA as indicator
Protocol: (§1) The concentration of MDA released is measured by complexing with thiobarbituric acid in an acidic medium. The chromogenic complex formed absorbs at 532 nm. Its quantification is monitored by fluorimetry.
The antioxidant activity of various compounds against the peroxidation of an unsaturated lipid, squalene, is measured.

[3] = MDA released in a cream with borage oil containing vitamin E after two hour solar exposure (thiobarbituric acid complex); conditions: for Concentration of MDA released: two hour solar exposure
Protocol: The concentration of malonaldehyde (MDA) released in a cream containing increasing quantities of an antioxidant, vitamin E (or alpha-tocopherol), which is subjected to an oxidative stress, is measured.
The cream containing vitamin E also contains borage oil which is naturally rich in linoleic acid. Oxidative stress consists in a two hour solar exposure.
as §1

SMILES | Quantity of molecule released (glucocerebrosidase) [n mol/hour] | Quantity of MDA released [2] [μg MDA] | other results
Cc1cc(=O)oc2cc(OC3O[C@H](CO)[C@@H](O)[C@H](O)[C@H]3O)ccc12 (stereo partly shown) [4-methylumbelliferyl-glucopyranoside, 4-methylumbelliferyl glucopyranoside] | 100 ± 7 | – | –
Cc1cc(O)cc2c1O[C@](C)(CCC[C@H](C)CCC[C@H](C)CCCC(C)C)CC2 [Delta-tocopherol, delta-tocopherol] | – | 7.2 ± 1.7 | Amount of compound in the cream [1]: 310 ± 14 Micromoles
Cc1cc(O[C@@H]2O[C@H](CO)[C@@H](O)[C@H](O)[C@H]2O)cc2c1O[C@](C)(CCC[C@H](C)CCC[C@H](C)CCCC(C)C)CC2 [Delta-tocopherol-glucopyranoside] | 14.3 ± 1 | 128 ± 38 | Amount of compound in the cream [1]: 311 ± 7 Micromoles
OC[C@H]1OC(Oc2ccccc2)[C@H](O)[C@@H](O)[C@@H]1O (stereo partly shown) [Phenylglucopyranoside] | 0.2 ± 0.5 | – | –
CC(C)CCCC(C)CCCC(C)CCCC1(C)CCc2cc(OC3OC(CO)C(O)C(O)C3O)ccc2O1 (stereo not shown) [Tocol-glucopyranoside, tocol-glucopyranoside] | 14.8 ± 1.2 | 142 ± 28 | –
CC(C)CCCC(C)CCCC(C)CCCC1(C)CCc2cc(O)ccc2O1 (stereo not shown) [Tocol] | – | 6 ± 1.9 | –
CCCCCCCCCCCCCCCC(=O)Oc1c(C)c(C)c2c(c1C)CCC(C)(CCCC(C)CCCC(C)CCCC(C)C)O2 (stereo not drawn) [Vitamin E palmitate, alpha-tocopherol palmitate] | – | 182.7 ± 39 | –
Cc1c(C)c2c(c(C)c1O)CC[C@@](C)(CCC[C@H](C)CCC[C@H](C)CCCC(C)C)O2 [vitamin E, alpha-tocopherol] | – | – | Release of the active agent from its glucosylated precursor (glucocerebrosidase): not released; Concentration of MDA released ([3]; 0.05 % by mass vitamin E in the cream): 1.2 ± 0.15 μg MDA/100 mg cream; Concentration of MDA released ([3]; 0.1 % by mass vitamin E in the cream): 1.9 ± 0.20 μg MDA/100 mg cream; Concentration of MDA released ([3]; 0.15 % by mass vitamin E in the cream): 2.0 ± 0.20 μg MDA/100 mg cream; Pro-inflammatory effect ([3]; cream rich in polyunsaturated fatty acid): causes a pro-inflammatory effect
Cc1c(C)c2c(c(C)c1OC1O[C@H](CO)[C@@H](O)[C@H](O)[C@H]1O)CCC(C)(CCCC(C)CCCC(C)CCCC(C)C)O2 (stereo partly drawn) [α-Tocopheryl-glucopyranoside] | 0 | – | –
Cc1c(OC2O[C@H](CO)[C@@H](O)[C@H](O)[C@H]2O)cc2c(c1C)OC(C)(CCCC(C)CCCC(C)CCCC(C)C)CC2 (stereo partly shown) [γ-Tocopheryl-glucopyranoside] | 0 | – | –
Cc1c(O)cc2c(c1C)O[C@](C)(CCC[C@H](C)CCC[C@H](C)CCCC(C)C)CC2 [γ-tocopherol] | – | – | Release of the active agent from its glucosylated precursor (glucocerebrosidase): not released
